# Legend:
# [1] = test system: five mammalian cell lines; assay: Toxicity profiling in mammalian cell lines; conditions: based on previously reported toxicity profiling
# [2] = test system: C. parvum Iowa isolate; assay: IFN-γ knockout mouse model of acute cryptosporidiosis; format: in vivo, C57BL/6 IFN-γ−/− mice; conditions: 30 mg/kg twice daily on days 4, 5, 6 postinfection
# Experimental: All interferon gamma (IFN-γ) knockout mouse studies were performed in compliance with animal care guidelines and were approved by the Explora BioLabs (San Diego, CA) Institutional Animal Care and Use Committee. Four-week-old female C57BL/6 IFN-γ^−/− mice with normal flora were purchased from The Jackson Laboratory and were acclimated for 3 days prior to infection by oral gavage with 10^6 C. parvum Iowa isolate oocysts (Sterling Parasitology Laboratory, University of Arizona) suspended in sterile distilled water. At various times postinfection, mice were treated with the compound vehicle alone, clofazimine (used as a positive control), or MMV665917. As described previously, fecal parasite shedding was quantified at various times postinfection by isolating oocysts using a sucrose gradient centrifugation method ([39]), followed by staining for immunofluorescence microscopy using a fluorescein isothiocyanate-conjugated mouse anti-Cryptosporidium antibody (0.25 μg per sample) and analysis with a Guava easyCyte flow cytometer and CytoSoft data acquisition and analysis software (version 5.3; Guava Technologies, Inc.). Oocyst counts per milliliter of sample were exported to Excel (Microsoft Corp.) and were normalized to counts per milligram of feces. Final data analysis and graphing were carried out using GraphPad Prism software (version 6.01).
# [3] = test system: C. parvum Iowa isolate; assay: NOD SCID gamma (NSG) mouse model of chronic cryptosporidiosis, fecal qPCR; format: in vivo, NOD SCID gamma mice
# Experimental: All NOD SCID gamma mouse studies were performed in compliance with animal care guidelines and were approved by the University of Vermont Institutional Animal Care and Use Committee. NOD SCID gamma mice with normal flora (NOD.Cg-Prkdc^scid Il2rg^tm1Wjl/SzJ) ([38]) were purchased from The Jackson Laboratory (Bar Harbor, ME, USA) and were housed for at least a week for acclimatization. At the age of 4 to 5 weeks, mice were infected with 10^5 C. parvum Iowa isolate oocysts. Fecal oocyst shedding is detected 6 days after infection using a quantitative PCR (qPCR assay), so treatment was started on day 7 after infection. Mice (4 per experimental group) were treated either orally (p.o.) with MMV665917 at 30 or 60 mg/kg BID, intraperitoneally (i.p.) with MMV665917 at 60 mg/kg BID, or p.o. with 1,000 mg/kg paromomycin BID. MMV665917 was suspended in DMSO, sonicated three times, for 30 s each time, to obtain a fine suspension, aliquoted, and stored at −80°C for <10 days. On the day of treatment, aliquots of MMV665917 diluted in DMSO were thawed, mixed well using a vortexer, diluted with 1% HPMC, sonicated as before (three times for 30 s each time), mixed well, and given to mice either p.o. or by i.p. injection. A final concentration of 5% DMSO was used in 100 μl of 1% HPMC per dose. For the additional Malaria Box compounds and compound variants tested, the doses were prepared in the same way, and the specific dosages tested are given in Table S3 in the supplemental material. Mice were treated for either 4 or 7 days, allowed to recover for a week, and then sacrificed. Oocyst shedding in feces was monitored throughout by qPCR, including time points while on treatment and while monitoring for relapsed infection following completion of treatment in Fig. 2A.
# [4] = set-up: method as in PMID 27467575; conditions: human; cited from earlier work
# [5] = test system: HCT-8 cells; assay: Host cell toxicity assay (CellTiter AQueous); format: cell-based, Human
# Experimental: Host cell toxicity was measured as described previously ([20]). HCT-8 cells were grown to >95% confluence in 384-well plates. Increasing concentrations of compounds were added, and assay plates were incubated at 37°C under 5% CO2 for 48 h. The corner wells of each plate were trypsinized to remove cells and were used as blanks for measuring absorbance at 490 nm. Cell proliferation was measured using the CellTiter AQueous assay kit (Promega, USA) according to the manufacturer's instructions and was expressed as the percentage of proliferation with the vehicle control (DMSO). GraphPad Prism software, version 6.01, was used to plot graphs and calculate the concentration that inhibits 50% of host cell proliferation relative to that with the DMSO control (50% toxic concentration [TC50]). A selectivity index (SI) was calculated as the ratio of the […].
structure (smiles),measurement,setting,value
"O=C(Nc1ccc(Cl)cc1)N1CCN(c2ccc3nncn3n2)CC1 [MMV665917, Clc1ccc(NC(=O)N2CCN(CC2)c3ccc4nncn4n3)cc1]",selectivity index (SI) for C. parvum over five mammalian cell lines,[1],> 20
same,efficacy in IFN-γ KO mouse model of acute infection,[2],highly efficacious
same,reduction of oocyst shedding,"[3]; 30 mg/kg orally twice daily, 7 days, from day 7 after infection",> 90%
same,"efficacy, oral versus intraperitoneal dosing","[3]; 60 mg/kg BID p.o. or i.p., Fig. 4A",equally efficacious regardless of the route of administration
same,relapse after cessation of treatment,"[3]; MMV665917 30 mg/kg orally twice daily, 7 days",relapsed
same,outcome after cessation of treatment,"[3]; MMV665917 60 mg/kg orally twice daily, 7 days",apparently cured
same,NSG efficacy,"[3]; dose 30 mg/kg, interval 12 h, duration 4 days",efficacious
same,plasma protein binding,[4],88.8%
same,"TC50, host HCT-8 cell toxicity","[5]; 48 h, CellTiter AQueous",> 100 µM
same,selectivity index (SI),[5]; HCT-8 TC50 versus C. parvum EC50,> 47
same,toxic effect on host HCT-8 cell proliferation,[5]; concentrations as high as 100 μM,no toxic effect
